SMILES strings stand for the structures. “Also recorded” adds a separate entry of the source.

Assay [1] has as its system SPS-induced allodynia and anxiety-like behaviors. As to conditions: less selective NOP receptor antagonist than SB; cited from earlier work.
The subject of assay [2] is SPS induced anxiety-like behaviors in Sprague Dawley (SD) rats. Briefly: Elevated Plus Maze (EPM), SPS induced anxiety-like behaviors. The assay is classed as in vivo. The following applies: for Anxiety index (FIG. 3B): female SD rats (n=6, not yet fully powered). As for the experimental part:
(§1) SPS procedure: 2 h of complete restraint in disposable plastic holders, followed by grouped (2-3 rats) forced swim for 20 min in a cylindrical tank (46 cm tall×20 cm in diameter) filled with 22-25° C. water to a depth of 30 cm. After 15 min recovery and drying period, rats are exposed to diethyl ether until loss of consciousness and left undisturbed (except for drug or vehicle injection) and alone for 7 days, after which they are pair housed. All rats are housed with soft bedding, observed for signs of pain or discomfort: weight loss, lack of grooming, or porphyrin staining; any such rats is excluded from study.
Elevated Plus Maze (EPM): Rats will be tested for anxiety-like behaviors. The percentage of open arm entries (number of entries into the open arms divided by total number of entries in both arms), time spent in the open arms, total distance traveled, and total time spent immobile are noted. The anxiety index (AI) is calculated where total exploration on the maze represents the total number of arm entries: Anxiety Index=1−[[(time spent in open arms/total time on the maze (300 sec))+(number of entries into open arms/total number of arm entries)]/2]. Each animal is tested at 9 and 30 days post-SPS.
(§2) Drug Treatment: PPL-138 (0.3 and 1 mg/kg) is dissolved in the same vehicle as 10 mg/kg SB (3% DMSO+97% of 0.5% hydroxypropyl cellulose (HPC)). Drug treatment (i.p.) begins immediately after exposure to ether and continues every other day thereafter. Ctr and SPS rats receive vehicle (3% DMSO+97% 0.5% HPC) injections.
Anxiety index reflects a combination of three anxiety-like behaviors.
(§3) Control (Ctr) and SPS-treated male and female SD rats are treated 3 times each week with Veh, PPL-138 (0.3 and 1 mg/kg, s.c.) or the NOP antagonist SB612111 (SB; 3 mg/kg, i.p.). […] SB alleviates TBI- and 6-OHDA Parkinson disease model-induced locomotor deficits and brain hypoxia.

For assay [3], the system named is SPS-induced allodynia in Sprague Dawley (SD) rats. Briefly: tactile sensitivity (allodynia), paw withdrawal threshold (PWT) after SPS. The assay is classed as in vivo. As to conditions: for paw withdrawal threshold, allodynia (FIG. 2A): male SD rats, 1 mg/kg i.p., days 14, 21 and 28, SPS vs SPS+PPL-138, p<0.05 (Tukey); for allodynia (PWT, FIG. 4A): male SPS rats. The procedure: as §1, §2
(§4) Degree of enhanced nociceptive sensitivity by SPS to tactile and thermal stimuli were reduced in this cohort likely a result of group housing during the first 7 days instead of our usual solo housing (FIG. 2). […] PPL-138 reduced serum N/OFQ levels compared to SPS (p<0.05 by Tukey's post-hoc test).
as §3
(§5) Sensitivity to tactile and thermal sensitivity in males and females was determined by paw withdrawal threshold to increasing pressure (PWT; tactile) and paw withdrawal latency to a thermal stimulus (PWL) (FIG. 4). There was a significant interaction between time and treatment for sensitivity to both tactile (A) and thermal (C) stimuli for males ([F (28, 228)=1.708, p=0.0182] and [F (28, 228)=4.276, p<0.0001]), respectively, as well as for thermal sensitivity (D) in females [F (28, 164)=2.286, p=0.0007]. […] Allodynia was reversed by 0.3 mg/kg PPL-138 and by SB in males, and by 1 mg/kg PPL-138 in females (#p<0.05). Thermal hyperalgesia was reversed by both doses of PPL-138 and SB in males, and by 1 mg/kg PPL-138 and SB in females.

The test system of assay [4] is SPS-induced thermal hyperalgesia in Sprague Dawley (SD) rats. In words: thermal sensitivity (hyperalgesia), paw withdrawal latency (PWL) after SPS. Type of assay: in vivo. The following applies: for thermal hyperalgesia (PWL, FIG. 4D): female SPS rats; for thermal hyperalgesia (PWL, FIG. 4D) / thermal hyperalgesia (PWL, FIG. 4C): 28 days; for thermal hyperalgesia (PWL, FIG. 4C): male SPS rats. The procedure:
as §1, §2, §4, §3, §5

The next assay deals with N/OFQ. In words: serum N/OFQ levels after SPS. The assay is classed as in vivo, Sprague Dawley (SD) rats. The following applies: end of pilot study, compared to SPS, p<0.05 (Tukey); ANOVA F (2, 12)=4.147, p=0.0421. The procedure: as §1, §2, §4
The target in assay [5] is mu opioid receptor. As to conditions: all four members of the opioid receptor family; cited from earlier work.
The next assay addresses kappa opioid receptor. The following applies: all four members of the opioid receptor family; cited from earlier work.
The next assay has as its target delta opioid receptor. The following applies: all four members of the opioid receptor family; cited from earlier work.
Assay [6] deals with NOP receptor. As to conditions: all four members of the opioid receptor family; cited from earlier work.
Assay [7] has as its system mu opioid receptor. As to conditions: less than buprenorphine; cited from earlier work.
Assay [8] has as its system NOP receptor. The following applies: higher than buprenorphine; cited from earlier work.
For a further assay, the system named is kappa receptor. As to conditions: PPL-138 like buprenorphine; cited from earlier work.
The next assay concerns delta receptor. As to conditions: PPL-138 like buprenorphine; cited from earlier work.
Assay [9] concerns TBI-induced locomotor deficits and brain hypoxia. The following applies: cited from earlier work.
Assay [10] deals with 6-OHDA Parkinson disease model-induced locomotor deficits and brain hypoxia. As to conditions: cited from earlier work.
For another assay, the system named is neuropathy. The following applies: models of neuropathy; cited from earlier work.
Assay [11] concerns irritable bowel syndrome (IBS). As to conditions: models of irritable bowel syndrome (IBS); cited from earlier work.

Take `CCc1ccc(OCc2ccccc2C(=O)Nc2ccc3nc(C)cc(N)c3c2)cc1` [JTC-801]: in assay [1], the SPS-induced allodynia result is “reversed” and the SPS-induced anxiety-like behaviors entry is given as “reversed”.

As for `O=C(CCc1ccccc1)O[C@@]12CCC(=O)[C@@H]3Oc4c(O)ccc5c4[C@@]31CCN(CC1CC1)[C@@H]2C5` [PPL-138, 14β-(3-phenylpropanoyl)-17-cyclopropylmethyl-7,8-dihydronoroxymorphinone], in assay [2] (PPL-138 1 mg/kg s.c., day 30 post-SPS), the “Anxiety index (FIG. 3B)” value was “significant effect”. The “anxiety-like behaviors (FIG. 3B)” value in [2] (female SD rats, overall statement) is listed as “reduces”. Moreover, the distance travelled entry in assay [2] (male SD rats, 1 mg/kg i.p., between groups (Ctr, SPS, SPS+PPL-138)) is listed as “no differences”. The “open arm time (FIG. 1B)” value in assay [2] (male SD rats, 1 mg/kg i.p., days 9 and 30 post-SPS, treatment F (2,12)=5.066, p<0.05, PPL 138+SPS vs SPS *p<0.05, **p<0.01 (Tukey), 1 mg/kg) was “increased; also recorded: significant effect”. Moreover, the “anxiety index (FIG. 1A)” value in [2] (male SD rats, 1 mg/kg i.p., days 9 and 30 post-SPS, treatment F (2,12)=9.912, p<0.005, PPL 138+SPS vs SPS *p<0.05, **p<0.01 (Tukey), 1 mg/kg) is “reduced; also recorded: significant effect”. Also, the “open arm entries (FIG. 1C)” value in [2] (male SD rats, 1 mg/kg i.p., days 9 and 30 post-SPS, treatment F (2,12)=11.99, p<0.005, PPL 138+SPS vs SPS *p<0.05, **p<0.01 (Tukey), 1 mg/kg) was “increased; also recorded: significant effect”. Moreover, the “Anxiety index (FIG. 3A)” value in assay [2] (male SD rats, PPL-138 0.3 mg/kg s.c., day 30 post-SPS) is reported as “significant effects”; in assay [2] (male SD rats, PPL-138 1 mg/kg s.c., day 9 post-SPS), “significant effect”; in [2] (male SD rats, PPL-138 1 mg/kg s.c., day 30 post-SPS), “significant effects”. Also, the “anxiety-like behaviors (FIG. 3A)” value in assay [2] (male SD rats, overall statement) is given as “reduces”. The “development of PTSD-induced anxiety-like behaviors” value in [2] (males and females, overall conclusion) is on record as “reverses”. The “allodynia (FIG. 4)” value in assay [3] (SD rats, overall statement) is “reduces”. Further, the “allodynia (PWT, FIG. 4B)” value in [3] (female SPS rats, PPL-138 1 mg/kg s.c., 28 days, #p<0.05) is “reversed”. The “paw withdrawal threshold, allodynia (FIG. 2A)” value was “SPS rats had significantly lower paw withdrawal threshold” in [3] (1 mg/kg) and “reversed” in assay [3] (listed as PPL 138, 1 mg/kg). For the same compound, in assay [3] (PPL-138 0.3 mg/kg s.c., 28 days, #p<0.05), the “allodynia (PWT, FIG. 4A)” value was “reversed”. The “development of PTSD-induced nociceptive sensitivity” value in assay [3] (males and females, overall conclusion (tactile and thermal)) is “reverses”. For the same compound, the “hyperalgesia (FIG. 4)” value in [4] (SD rats, overall statement) is listed as “reduces”. Further, the “thermal hyperalgesia (PWL, FIG. 4D)” value in assay [4] (PPL-138 1 mg/kg s.c.) is given as “reversed”. Further, in assay [4] (male SD rats, 1 mg/kg i.p., treatment F (2, 12)=7.56, p<0.01), the “thermal sensitivity (FIG. 2B)” value is “reversed”. For the same compound, the “thermal hyperalgesia (PWL, FIG. 4C)” value in assay [4] (PPL-138 0.3 mg/kg s.c. (both doses)) and in [4] (PPL-138 1 mg/kg s.c. (both doses)) was “reversed” each time. In addition, in the assay with N/OFQ, the “serum N/OFQ levels” value is listed as “reduced”. Moreover, the inhibitory constant (Ki) at mu opioid receptor [5], at kappa opioid receptor, at delta opioid receptor and at NOP receptor [6] was under 10 nM in each case. In the assay on mu opioid receptor [7], the efficacy at mu result is on record as “very low efficacy”. In the assay with NOP receptor [8], the “partial agonist activity at NOP receptor” value is reported as “partial agonist”. For the same compound, the “activity at kappa receptor” value in the assay on kappa receptor is given as “antagonist”. Also, in the assay on delta receptor, the “activity at delta receptor” value is “antagonist”.

As to `Cc1cccc2c1CC[C@H](CN1CCC(c3c(Cl)cccc3Cl)CC1)C[C@@H]2O` [SB612111], the “Anxiety index (FIG. 3B)” value in [2] (SB 3 mg/kg i.p., day 9 post-SPS) is listed as “significant effect”. The “Anxiety index (FIG. 3A)” value in assay [2] (male SD rats, SB 3 mg/kg i.p., day 30 post-SPS) is “significant effects”. In [3] (SB 3 mg/kg i.p., 28 days, #p<0.05), the “allodynia (PWT, FIG. 4A)” value is reported as “reversed”. In assay [4] (SB 3 mg/kg i.p.), the “thermal hyperalgesia (PWL, FIG. 4D)” value was “reversed” and the “thermal hyperalgesia (PWL, FIG. 4C)” value is on record as “reversed”. Also, in assay [9], the brain hypoxia entry is “alleviates” and the locomotor deficits entry was “alleviates”. Further, in assay [10], the brain hypoxia result is “alleviates” and the locomotor deficits result is “alleviates”. For the same compound, the antinociception entry in the assay on neuropathy was “produces antinociception”. The antinociception entry in [11] is listed as “produces antinociception”.

`CO[C@@]12CC[C@@]3(C[C@@H]1[C@](C)(O)C(C)(C)C)[C@H]1Cc4ccc(O)c5c4[C@@]3(CCN1CC1CC1)[C@H]2O5` [buprenorphine, reference compound]: in the assay with kappa receptor, the “activity at kappa receptor” value was “antagonist”. The “activity at delta receptor” value with delta receptor is reported as “antagonist”.

The values are drawn from patent US20260325506A1, “METHODS OF TREATING POST-TRAUMATIC STRESS DISORDER AND ALCOHOL USE DISORDER” (FLORIDA ATLANTIC UNIVERSITY RESEARCH CORPORATION, priority 2023, published 2026).
